Experimental data published in ChEMBL document CHEMBL1201862, “PubChem BioAssay data set” (2004).
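Step 1: Grow cells in 96-well plates. Step 2: Expose to compound for 48 hours at 5 concentrations. Step 3: Interpolate endpoints linearly; if unreached, use highest concentration. Abbreviation: GI50, concentration required for 50% inhibition of growth.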 Active and inactive are the calls of the source. No stated cut-off is given here; in the data, active = GI50 up to about 1.1 µM and inactive = higher.

How the values were obtained:
Test in all cases: inhibition of tumour cell growth, NCI panel, 48 h
HCC 2998 = test system: HCC 2998
LOX IMVI = test system: LOX IMVI
IGROV-1 = test system: IGROV-1
SK-MEL-28 = test system: SK-MEL-28
SN12C = test system: SN12C
NCI-H460 = test system: NCI-H460
SK-OV-3 = test system: SK-OV-3
HCT-116 = test system: HCT-116
SW-620 = test system: SW-620
U-251 = test system: U-251
A549 = test system: A549
Malme-3M = test system: Malme-3M
SF-539 = test system: SF-539
OVCAR-8 = test system: OVCAR-8
HT-29 = test system: HT-29
NCI-H23 = test system: NCI-H23

Measured: GI50

COC(=O)c1c(-c2ccccc2)sc(-c2cccc3ccccc23)c1C(=O)OC
inactive: HCC 2998 88.3 µM | LOX IMVI > 100 µM | IGROV-1 > 100 µM | SK-MEL-28 > 100 µM | SN12C > 100 µM | NCI-H460 > 100 µM | SK-OV-3 > 100 µM | HCT-116 > 100 µM | SW-620 > 100 µM | U-251 > 100 µM | A549 > 100 µM | Malme-3M 21.9 µM | SF-539 > 100 µM | OVCAR-8 > 100 µM | HT-29 51.3 µM | NCI-H23 > 100 µM

NC(CCc1ncc(-c2ccccc2)s1)C(=O)O (centres undefined)
inactive: HCC 2998 > 100 µM | LOX IMVI > 100 µM | IGROV-1 > 100 µM | SK-MEL-28 > 100 µM | SN12C > 100 µM | NCI-H460 > 100 µM | SK-OV-3 > 100 µM | HCT-116 > 100 µM | SW-620 > 100 µM | U-251 > 100 µM | A549 > 100 µM | Malme-3M > 100 µM | SF-539 > 100 µM | OVCAR-8 > 100 µM | HT-29 > 100 µM | NCI-H23 > 100 µM

CCOC(=O)C1=C(O)C(=O)c2cc(C)ccc2C1=O
inactive: HCC 2998 > 100 µM | LOX IMVI 55.2 µM | IGROV-1 > 100 µM | SK-MEL-28 > 100 µM | SN12C > 100 µM | NCI-H460 > 100 µM | SK-OV-3 > 100 µM | HCT-116 81.7 µM | SW-620 > 100 µM | U-251 > 100 µM | A549 39.4 µM | Malme-3M 65.3 µM | SF-539 > 100 µM | OVCAR-8 > 100 µM | HT-29 > 100 µM | NCI-H23 27.2 µM

Cc1c(C(=O)CSc2nc3cc([N+](=O)[O-])ccc3[nH]2)c(=O)n(-c2ccccc2)n1C
inactive: HCC 2998 36.6 µM | LOX IMVI > 100 µM | IGROV-1 > 100 µM | SK-MEL-28 > 100 µM | SN12C > 100 µM | NCI-H460 > 100 µM | SK-OV-3 > 100 µM | HCT-116 > 100 µM | SW-620 > 100 µM | U-251 > 100 µM | A549 > 100 µM | Malme-3M 49.7 µM | SF-539 > 100 µM | OVCAR-8 > 100 µM | HT-29 > 100 µM | NCI-H23 > 100 µM

CCOP(=O)(OCC)/C(C#N)=C\c1ccc(OC(C)=O)cc1
inactive: HCC 2998 > 100 µM | LOX IMVI > 100 µM | IGROV-1 > 100 µM | SK-MEL-28 > 100 µM | SN12C > 100 µM | NCI-H460 > 100 µM | SK-OV-3 > 100 µM | HCT-116 > 100 µM | SW-620 > 100 µM | U-251 > 100 µM | A549 > 100 µM | Malme-3M > 100 µM | SF-539 > 100 µM | OVCAR-8 > 100 µM | HT-29 > 100 µM | NCI-H23 > 100 µM

Cc1cc2c(=O)c3ccc(Cl)cc3[nH]c2c(C(N)=O)c1C
inactive: HCC 2998 > 100 µM | LOX IMVI > 100 µM | IGROV-1 > 100 µM | SK-MEL-28 > 100 µM | SN12C > 100 µM | NCI-H460 > 100 µM | SK-OV-3 > 100 µM | HCT-116 > 100 µM | SW-620 > 100 µM | U-251 > 100 µM | A549 > 100 µM | Malme-3M > 100 µM | SF-539 > 100 µM | OVCAR-8 > 100 µM | HT-29 > 100 µM | NCI-H23 > 100 µM

COc1cc2c(cc1OC)C(=O)C(C1=C(SC(=N)N)C(=O)c3cc(OC)c(OC)cc31)C2 (centres undefined)
inactive: HCC 2998 > 100 µM | LOX IMVI > 100 µM | IGROV-1 > 100 µM | SK-MEL-28 > 100 µM | SN12C > 100 µM | NCI-H460 > 100 µM | SK-OV-3 > 100 µM | HCT-116 > 100 µM | SW-620 > 100 µM | U-251 > 100 µM | A549 > 100 µM | Malme-3M > 100 µM | SF-539 > 100 µM | OVCAR-8 > 100 µM | HT-29 > 100 µM | NCI-H23 > 100 µM

NC(CCSC(F)F)C(=O)O (centres undefined)
inactive: HCC 2998 > 100 µM | LOX IMVI > 100 µM | IGROV-1 > 100 µM | SK-MEL-28 > 100 µM | SN12C > 100 µM | NCI-H460 > 100 µM | SK-OV-3 > 100 µM | HCT-116 > 100 µM | SW-620 > 100 µM | U-251 > 100 µM | A549 > 100 µM | Malme-3M > 100 µM | SF-539 > 100 µM | OVCAR-8 > 100 µM | HT-29 > 100 µM | NCI-H23 > 100 µM

O=C1O[B-](c2ccccc2)(c2ccccc2)[NH2+]C1CS (centres undefined)
inactive: HCC 2998 49.7 µM | LOX IMVI 24.3 µM | IGROV-1 78 µM | SK-MEL-28 66.1 µM | SN12C 80.4 µM | NCI-H460 66.1 µM | SK-OV-3 > 100 µM | HCT-116 33.7 µM | SW-620 24.5 µM | U-251 63.5 µM | A549 92.3 µM | Malme-3M 38.2 µM | SF-539 57.7 µM | OVCAR-8 > 100 µM | HT-29 71.3 µM | NCI-H23 61.2 µM
